Source: patent US20100233131A1 (PUSAN NATIONAL UNIVERSITY INDUSTRY-UNIVERSITY COOP, priority 2008, published 2010)

What was measured:
Type in all cases: cell-based, human
ATSCs [1] = assay: Osteogenic and adipogenic differentiation in vitro
Method: To estimate the differentiation potential of selenium-treated ATSCs, osteogenic and adipogenic differentiation potential was evaluated.
In the present embodiment, it was confirmed that the selenium-treated ATSCs accumulated significant amounts of calcium and lipid droplets after only one week of osteogenetic and adipogenetic induction in vitro (FIG. 17). Differences in formation of bone nodules and lipid droplets between the control and selenium-treated ATSCs were estimated by calculating the number of stained bone nodules and lipid droplets in 25 randomly selected fields (regions).

ATSCs [2] = assay: Neural differentiation in vitro
From the text: In an attempt to estimate differentiation potential of selenium-treated ATSCs into neural cells in vitro, low levels of Nestin protein expression were detected in the selenium-treated ATSCs after the induction of differentiation (FIG. 19). After neural differentiation, the selenium-treated ATSCs expressed higher levels of Tuj, GFAP, MAP2ab and NF160 than the control ATSCs (FIG. 19). […] It means that there is a difference in differential potential between the control ATSCs and the selenium-treated ATSCs.

ATSCs [3] = assay: Molecular marker expression by real time RT-PCR and Western blot
From the text: The expression of molecular markers in both the control ATSCs and the selenium-treated cells was verified via real time RT-PCR and Western blot analysis.

ATSCs [4] = assay: ROS generation (DCF fluorescence)
ATSCs [5] = assay: Colony forming unit (CFU) assay; conditions: 5 ng/ml selenium 3 days, colonies counted after 15 days, vs control ATSCs
Method: Also, the proliferation efficiency of colony forming units (CFU) in the selenium-treated cells was evaluated. […] First, the ATSCs were seeded in 10 cm dishes at a density of 5×10^5 and cultured in a 2% FBS-containing α-MEM medium for 8 hours at 37° C. in a CO2 incubator. […] After 15 days, the cells were fixed with 4% paraformaldehyde (PFA) for 30 minutes at room temperature and stained with 0.1% toluidine blue dissolved in 1% PFA. The proliferation efficiency of the CFU was evaluated via visual colony counts.

[6] = tested on: Rex1, Nanog and Oct4 promoter regions; assay: Bisulfite sequencing of CpG methylation on stemness gene promoter regions
Method: Also, a bisullipide sequencing analysis was performed in order to establish 5′-3′ CpG methylation profiles across a proximal promoter, a proximal enhancer and an early transcription start site (TSS) of each gene.
Genomic DNA of ATSCs was purified by phenol/chloroform/isoamylalcohol extraction, and chloroform extraction once, and then was precipitated with ethanol. The DNA was dissolved in distilled water. Bisullipide conversion was performed using EZ DNA Methylation-Gold Kit (Zymo Research, USA), as described by a manufacturer. That is, unmethylated cytosines on the DNA were converted into uracils via the heat-denaturation of DNA with specifically designed CT conversion reagent. The DNA was then desulphonated and subsequently cleaned and eluted. The bisulfite-modified DNA was then immediately used for PCR or stored at −20° C. or below. The converted DNA was amplified via PCR using primers designed with MethPrimer (http://www.urogene.org/methprimer). The PRC was conducted in a MyGenie 96 Gradient Thermal Block (Bioneer, Daejeon, South Korea) according to the following protocol, including 95° C. for 15 minutes, 40 cycles of 95° C. for 20 seconds, 43 to 58° C. for 40 seconds, and 72° C. for 30 seconds, elongation at 72° C. for 10 minutes and soaking at 4° C. After electrophoresis on 1.5% agarose gel, the remaining PCR products were cloned into bacteria (DH5α) by the pGEM T-Easy Vector System I (Promega, Madison, Wis., USA). The DNA extracted from bacterial clones were analyzed via sequencing with M13 reverse primers using the ABI 3730XL capillary DNA sequencer (Applied Biosystems, Foster City, Calif., USA), and represented as rows of circles, each circle denoting the methylation status of CpG.

ATSCs [7] = assay: Prolonged culture / proliferation lifespan
From the text: During prolonged culture periods, the population of control ATSCs underwent a progressive reduction in proliferation potential. The cells finally underwent senescence after 21 to 23 passages (90 to 100 days in culture). At the end of the proliferation lifespan, the cells were flattered and larger in morphology in a monolayer similar to that described for senescent fibroblasts. […] The rate of proliferation of selenium-treated ATSCs resembled that of the control ATSCs.

ATSCs [8] = assay: Oligonucleotide microarray analysis of gene expression; conditions: vs control ATSCs
Method: To confirm the pattern of gene expression, oligonucleotide microarray analysis was performed.

ATSCs [9] = assay: Telomerase activity of selenium-treated ATSCs; conditions: 5 ng/ml selenium for 3 days
From the text: An increase in telomerase activity is a characteristic of a stem cell, and a decrease in telomerase activity indicates differentiation of the cells.

ATSCs [10] = assay: Differentiation into insulin-producing cells; conditions: after beta-cell-like differentiation, vs differentiated control ATSCs
Method: Moreover, for differentiation of cells similar to beta cells, cells were cultured in “N2 media-NA” containing DMEM/F12 (Gibco-Invitrogen) supplemented with 10 mM nicotinamide, ITS (1:50), B27 (1:50; Invitrogen) and 15% FBS. After 24-hour culture, the medium was changed with a high glucose (3500 mg/L)-containing differentiation medium for 2 weeks. After the induction of differentiation, double immunocytochemistry was conducted using insulin (1:800; Sigma) and c-peptide (1:100; Milipore) antibodies.

ATSCs [11] = assay: Cell scraped wound model assay
Method: Cells were seeded into 60 mm culture dishes, and a straight line was lightly carved across the center, outer and bottom surface of each dish with a scalpel. The ATSCs were incubated overnight in a serum-free medium, scraped from one side of the marked line, and washed three times with a medium to remove loose or dead cells. […] The control dish was also scratched in the same manner as described above, and incubated in a selenium-free medium. Cells migrated across the marked reference line were photographed under a phase contrast microscope.

ATSCs [12] = assay: Western blot of proliferation-related signaling proteins; conditions: time-dependent

O=[Se]([O-])[O-].[Na+].[Na+] [selenium, sodium selenite]
lipid droplets vs control ATSCs (ATSCs [1]; adipogenic induction, eluted dye quantitative assay): six-fold more
level of osteonectin, RXR and osteopontin mRNA (ATSCs [1]; during osteogenesis): significant increases
levels of AP and PPAR-γ mRNAs (ATSCs [1]; in adipogenesis): significant increases
bone nodules vs control ATSCs (ATSCs [1]; osteogenic induction, eluted dye quantitative assay): Five-fold more
acetyl-histones 3 and 4 (Western blot) (ATSCs [2]; after neural differentiation): overexpressed
expression of Tuj, GFAP, MAP2ab and NF160 (ATSCs [2]; after neural differentiation, vs control ATSCs): higher levels
neural differentiation (MAP2ab/total cells) (ATSCs [2]; control ATSCs 2.4%): 9.0 % of total cells
acetylation of Histones 3 and 4 (ATSCs [3]): attenuated
expression of GFAP, Tuj, p53 and p21 (ATSCs [3]): downregulation
expression of Nestin and c-Myc (ATSCs [3]): induced expression
Rex1 expression (ATSCs [3]; vs control ATSCs): significantly increased
expression of stemness and functional genes (Rex1, Nanog, Oct4, Sox2, Runx3, CDK1, CDK2, Nestin, VEGF, FGFR1) (ATSCs [3]; vs control ATSCs): overexpression
increased fluorescence intensity of DCF (ROS generation) (ATSCs [4]): compensated
cell proliferation increase by CFU levels (ATSCs [5]): at least 1.8 times
Nanog promoter methylation ([6]; third region (-86 to +66) to the TSS): effectively demethylated
Oct4 promoter CpG methylation ([6]; third region, control ATSCs 65.7%): 30.3%
Rex1 region CpG methylation ([6]; third region, control ATSCs 72.2%): 42.2%
passages of continuous growth (ATSCs [7]): > 21 passages
duration of continuous growth (ATSCs [7]; control ATSCs senescent after 21 to 23 passages): more than 3 months
upregulation of cell proliferation-associated genes (ATSCs [8]): 42%
increase in telomerase activity (ATSCs [9]): 2 fold
insulin secretion with C-peptide (ATSCs [10]): secreted a significant amount of insulin
migration of ATSCs across the reference line (ATSCs [11]; 5 ng/ml selenium, 24 hours, vs control ATSCs): three times higher
expression of migration-associated factors MMP1, MMP3, SDF1, VEGF and CXCR4 (ATSCs [11]; after selenium treatment): increases in expression
activation of PI3K and downstream mediators (p-Rac, p-c-Raf, p-MEK, p-ERK, p-Stat3, p-Akt) (ATSCs [12]; 0, 3, 6 and 12 hours): significant activation
concentration of apoptosis-related protein p-SAPK/JNK (ATSCs [12]): reduced
